ChEMBL document CHEMBL1158778, “Paecilosetin, a new bioactive fungal metabolite from a New Zealand isolate of Paecilomyces farinosus” (J Nat Prod, 2005)
In brackets after ≈: the same amount, converted by molar mass.

Experiments:
P388 = assay: Cytotoxicity against mouse P388 cells by MTT assay; type: functional, cell-based
Amorphotheca resinae = assay: Antimicrobial activity against Cladosporium resinae at 40 ug/disk by agar diffusion assay; type: functional; details: read-out: IZ
[1] = test system: Trichophyton mentagrophytes; assay: Antimicrobial activity against Trichophyton mentagrophytes at 40 ug/disk by agar diffusion assay; type: functional; details: read-out: IZ
Bacillus subtilis = assay: Antimicrobial activity against Bacillus subtilis at 5 ug/disk by agar diffusion assay; type: functional; details: read-out: IZ

Compound	IC50 (P388)	zone of inhibition at 40 µg/disc (Amorphotheca resinae)	zone of inhibition at 40 µg/disc [1]	zone of inhibition at 5 µg/disc (Bacillus subtilis)
CCC(C)/C=C(C)/C=C/C=C/C=C/C(=O)c1c(O)c(-c2ccc(O)cc2)cn(O)c1=O (stereo not given) [FARINOSONE B]	1.1 µg/mL (≈ 2.61 µM)			
C/C=C/[C@@H]1C=C[C@@H]2C[C@H](C)CC[C@H]2[C@]1(C)/C(O)=C1\C(=O)N[C@@H](C(C)O)C1=O (stereo not given in full) [PAECILOSETIN]	3.2 µg/mL (≈ 8.57 µM)	1 mm	3 mm	3 mm
